Data reported in patent publication EP3120851A1, “4-AMINO-6-(2,6-DICHLOROPHENYL)-8-METHYL-2-(PHENYLAMINO)-PYRIDO[2,3-D]PYRIMIDIN-7(8H)-ONE FOR TREATMENT OF SOLID CANCERS” (Pangaea Biotech S.L., priority 2015, dated 2017).
Read-outs that look alike come from different tables or passages of the source.

Columns and labels:
Assay in all cases: MTT cell viability assay, combinations (Chou-Talalay method)
Assay type in all cases: cell-based
H3122 Cells = details: for IC50: Homo sapiens
Method: (§1) The combinations comprising the compound of formula (1) were tested using an MTT proliferation assay in a panel of tumor cell lines of different origins. All culture materials were obtained from the sources described in Example 2. In the Chou-Talalay method, which is the standard, universally known methodology to determine drug interactions, the two drugs under study are maintained at a fixed ratio of IC50 single agent (drug 1):IC50 single agent (drug 2) while the concentration of total amount of drugs in the combination is varied and the 20% (IC20), 50% (IC50) and 80% (IC80) of growth inhibition of the combination is determined.
(§2) In the activity assays on cell lines the following terms are used: • IC50: Drug concentration at which 50% growth inhibition is achieved. • TKI IC50: The IC50 of the tyrosine kinase inhibitor as single agent. • Compound (1) IC50: The IC50 of compound (1) as single agent. • CI@IC20: The combination index of the combination consisting of drug 1 and drug 2 at a weight ratio equal to IC50 of drug 1:IC50 of drug 2 wherein said combination is used at a total amount that achieves 20% of growth inhibition. • CI@IC50: The combination index of the combination consisting of drug 1 and drug 2 at a weight ratio equal to IC50 of drug 1:IC50 of drug 2, wherein said combination is used at a total amount that achieves 50% of growth inhibition. • CI@IC80: The combination index of the combination consisting of drug 1 and drug 2 at a weight ratio equal to IC50 of drug 1:IC50 of drug 2, wherein said combination is used at a total amount that achieves 80% of growth inhibition. • Combination TKI IC50: The combination index at a tyrosine kinase inhibitor concentration that corresponds to the IC50 (single agent). • The combination index (CI) concept was introduced by Chou T.C. and Talalay P.(Chou TC, Talalay P. Adv Enzyme Regul 1984;22:27-55). The derived combination index equation for two drugs is (D = dosage or concentration): CI = ((D)1)/((Dx)1) + ((D)2)/((Dx)2) [formula] where (Dx)1 is the concentration of drug 1 "alone" that inhibits growth at a x% (i.e. (D50)1 is the concentration of drug 1 "alone" that inhibits growth at a 50%), (Dx)2 is the concentration of drug 2 "alone" that inhibits growth at a x%, (D)1 and (D)2 refer to the concentration of drug 1 and drug 2, respectively, in the combination, wherein the combination inhibits growth at the same x%. The CI Value quantitatively defines synergism (CI<1) (in particular, CI values of CI<0.7 indicates strong synergism, 0.7<CI<0.85 indicates moderate synergism, 0.85<CI<1 indicates slight synergism), additive effect (CI=1) and antagonism (CI>1). Based on the above equation, a plot of CI values at different effect levels (fa's) can be determined. Entering a series of "dose" ((D1), (D2), ((Dx)1 and (Dx)2) and % of growth inhibition (%x or effect (fa))" into an excel sheet for each drug alone and their combinations, the CI values at different x% (or fa levels) are obtained using the above equation. This plot is also called the Fa-CI plot or the Chou-Talalay plot.
(§3) Cell viability in response to combination treatment was assessed by the Thiazolyl Blue Tetrazolium Bromide (MTT) (Sigma, St Louis, MO) assay. Cells from each cell line were seeded at 2000 to 10000 per well in 96-well plates. […] Twenty-four hours after seeding, cells were exposed to compound (1), commercial drug or combinations thereof for 72 h. In the Chou-Talalay method, which is the standard, universally known methodology to determine drug interactions, the two drugs under study are maintained at a fixed ratio IC50 single agent (drug 1):IC50 single agent (drug 2).
(§4) After treatment, cells were incubated with medium containing MTT (0.75 mg/mL in medium) for 1-2 h at 37°C. Culture medium with MTT was removed and formazan crystals reabsorbed in 100 µL DMSO (Sigma, St. Louis, MO). Cell viability was determined by measuring the absorbance at 492 nm, using a microplate reader (BioWhittaker, Walkersville, MD).

H2228 Cells = details: Homo sapiens, H2228 cells
Method: as §1, §2, §3, §4

HCC78 cells = tested on: HCC78 cells
Method: as §1, §2, §3, §4

[1] = NCI-H3122, 72 h, H3122 cells, tyrosine kinase inhibitor as single agent, 72 h, read-out: TKI IC50
[2] = Homo sapiens, HCC78, 72 h, HCC78 cells, tyrosine kinase inhibitor as single agent, 72 h, read-out: TKI IC50

Fold change in the TKI IC50 (H3122 Cells; H3122 cells, TKI single agent vs with compound (1))	IC50 (H3122 Cells; NCI-H3122, H3122 cells, TKI in combination with compound (1), read-out: Combination TKI IC50)	Fold change in the TKI IC50 (HCC78 cells; HCC78 cells, TKI single agent vs with compound (1))	IC50 (HCC78 cells; Homo sapiens, HCC78, HCC78 cells, TKI in combination with compound (1), read-out: Combination TKI IC50)	Compound	IC50 (H3122 Cells; [1])	IC50 (H2228 Cells; NCI-H2228, read-out: IC50 of crizotinib when compound of formula (1) was also administered, combination with compound (1))	IC50 (H2228 Cells; NCI-H2228, tyrosine kinase inhibitor as single agent, 72 h, read-out: TKI IC50)	IC50 (H3122 Cells; NCI-H3122, read-out: IC50 of crizotinib in presence of compound of formula (1), H3122 cells, combination with compound (1))	IC50 (HCC78 cells; HCC78 cells, tyrosine kinase inhibitor as single agent, 72 h, read-out: TKI IC50)	IC50 (HCC78 cells; [2])	IC50 (HCC78 cells; Homo sapiens, HCC78, read-out: Combination TKI IC50, HCC78 cells, TKI in combination with compound (1))	IC50 (HCC78 cells; read-out: Combination TKI IC50, HCC78 cells, TKI in combination with compound (1))
3.355 fold	15 nM	–	–	CCc1cc2c(cc1N1CCC(N3CCOCC3)CC1)C(C)(C)c1[nH]c3cc(C#N)ccc3c1C2=O [Alectinib, 9-ethyl-6,6-dimethyl-8-(4-morpholinopiperidin-1-yl)-11-oxo-6,11-dihydro-5H-benzo[b]carbazole-3-carbonitrile]	50 nM	–	–	–	–	–	–	–
–	–	–	–	C[C@@H](Oc1cc(-c2cnn(C3CCNCC3)c2)cnc1N)c1c(Cl)ccc(F)c1Cl [Crizotinib, 3-[(1R)-1-(2,6-dichloro-3-fluorophenyl)ethoxy]-5-(1-piperidin-4-ylpyrazol-4-yl)pyridin-2-amine]	190 nM	53 nM	250 nM	29 nM	7160 nM	7200 nM	250 nM	249 nM
–	–	2.846 fold	130 nM	COc1cc2c(Oc3ccc(NC(=O)C4(C(=O)Nc5ccc(F)cc5)CC4)cc3F)ccnc2cc1OCCCN1CCOCC1 [Foretinib, N^1'-[3-fluoro-4-[[6-methoxy-7-(3-morpholinopropoxy)-4-quinolyl]oxy]phenyl]-N'-(4-fluorophenyl)cyclopropane-1,1-dicarboxamide]	–	–	–	–	–	370 nM	–	–
